Assay results as given in PMC5218480 (PLoS ONE, 2017).

System: MV-4-11 cells
Assay: Gene expression microarray analysis (Affymetrix PrimeView) and GSEA
Format: cell-based, human
Set-up: RFU PODN (11730768_x_at) / Fold change /veh PODN (11730768_x_at) / RFU LINC00158 (11744669_a_at) / Fold change /veh LINC00158 (11744669_a_at) / RFU DUSP10 (11751237_a_at) / Fold change /veh DUSP10 (11751237_a_at) / RFU ID3 (11757404_x_at) / Fold change /veh ID3 (11757404_x_at) / RFU PLEKHG5 (11737974_s_at) / Fold change /veh PLEKHG5 (11737974_s_at) / RFU LRRC4B (11730491_at) / Fold change /veh LRRC4B (11730491_at) / RFU GIMAP4 (11747438_a_at) / Fold change /veh GIMAP4 (11747438_a_at) / RFU KRT8 (11758183_x_at) / Fold change /veh KRT8 (11758183_x_at) / RFU CNN1 (11734310_a_at) / Fold change /veh CNN1 (11734310_a_at) / RFU VPS37D (11726825_at) / Fold change /veh VPS37D (11726825_at) / RFU C10orf10 (11716522_x_at) / Fold change /veh C10orf10 (11716522_x_at) / RFU KIR2DL2 /// KIR2DL4 /// KIR2DL5A /// KIR2DL5B /// KIR2DS1 /// KIR2DS2 /// KIR2DS3 /// KIR2DS4 /// KIR3DL3 /// KIR3DL3 /// KIR3DS1 (11738374_at) / Fold change /veh KIR2DL2 /// KIR2DL4 /// KIR2DL5A /// KIR2DL5B /// KIR2DS1 /// KIR2DS2 /// KIR2DS3 /// KIR2DS4 /// KIR3DL3 /// KIR3DL3 /// KIR3DS1 (11738374_at) / RFU C1QL1 (11718748_at) / Fold change /veh C1QL1 (11718748_at) / RFU TMPRSS4 (11747572_a_at) / Fold change /veh TMPRSS4 (11747572_a_at) / RFU HAMP (11756126_x_at) / Fold change /veh HAMP (11756126_x_at) / RFU RNFT2 (11725882_a_at) / Fold change /veh RNFT2 (11725882_a_at) / RFU NR4A2 (11747474_a_at) / Fold change /veh NR4A2 (11747474_a_at) / RFU ABCC12 (11746883_a_at) / Fold change /veh ABCC12 (11746883_a_at) / RFU TMEM136 (11760407_x_at) / Fold change /veh TMEM136 (11760407_x_at) / RFU CLDN22 /// WWC2 (11732394_at) / Fold change /veh CLDN22 /// WWC2 (11732394_at) / RFU HLA-DPB1 (11760878_x_at) / Fold change /veh HLA-DPB1 (11760878_x_at) / RFU SPINT1 (11716480_a_at) / Fold change /veh SPINT1 (11716480_a_at) / RFU GAP43 (11754022_s_at) / Fold change /veh GAP43 (11754022_s_at) / RFU A4GNT (11735810_at) / Fold change /veh A4GNT (11735810_at) / RFU PRB3 (11715151_x_at) / Fold change /veh PRB3 (11715151_x_at) / RFU TUBB4B (11761932_at) / Fold change /veh TUBB4B (11761932_at) / RFU CAPN14 (11732068_a_at) / Fold change /veh CAPN14 (11732068_a_at) / RFU TMCC2 (11721928_a_at) / Fold change /veh TMCC2 (11721928_a_at) / RFU IRGQ (11745062_a_at) / Fold change /veh IRGQ (11745062_a_at) / RFU FAM174B (11720279_a_at) / Fold change /veh FAM174B (11720279_a_at) / RFU TMPRSS4 (11748680_a_at) / Fold change /veh TMPRSS4 (11748680_a_at) / RFU FAM212B (11763350_a_at) / Fold change /veh FAM212B (11763350_a_at) / RFU PLEKHG5 (11743358_a_at) / Fold change /veh PLEKHG5 (11743358_a_at) / RFU ZSCAN30 (11745921_a_at) / Fold change /veh ZSCAN30 (11745921_a_at) / RFU CMKLR1 (11741424_a_at) / Fold change /veh CMKLR1 (11741424_a_at) / RFU LOC101060620 /// MAPK8IP1 (11723275_at) / Fold change /veh LOC101060620 /// MAPK8IP1 (11723275_at) / RFU SPTSSB (11747773_x_at) / Fold change /veh SPTSSB (11747773_x_at) / RFU PRSS12 (11739890_at) / Fold change /veh PRSS12 (11739890_at) / RFU BIN1 (11741810_x_at) / Fold change /veh BIN1 (11741810_x_at) / RFU WNT11 (11732464_a_at) / Fold change /veh WNT11 (11732464_a_at) / RFU C10orf10 (11716521_a_at) / Fold change /veh C10orf10 (11716521_a_at) / RFU C5orf56 (11738089_at) / Fold change /veh C5orf56 (11738089_at) / RFU CYB561 (11721691_x_at) / Fold change /veh CYB561 (11721691_x_at) / RFU ANKRD19P (11752326_a_at) / Fold change /veh ANKRD19P (11752326_a_at) / RFU OR2T12 /// OR2T33 /// OR2T8 (11738714_s_at) / Fold change /veh OR2T12 /// OR2T33 /// OR2T8 (11738714_s_at) / RFU VCAN (11748164_a_at) / Fold change /veh VCAN (11748164_a_at) / RFU JSRP1 (11732532_at) / Fold change /veh JSRP1 (11732532_at) / RFU KRTAP10-11 (11738290_x_at) / Fold change /veh KRTAP10-11 (11738290_x_at) / RFU MYO3A (11730013_a_at) / Fold change /veh MYO3A (11730013_a_at) / RFU EBF3 (11725865_a_at) / Fold change /veh EBF3 (11725865_a_at) / RFU CAMK2N1 (11719241_x_at) / Fold change /veh CAMK2N1 (11719241_x_at) / RFU C5orf56 (11738088_a_at) / Fold change /veh C5orf56 (11738088_a_at) / RFU OLFML3 (11715873_a_at) / Fold change /veh OLFML3 (11715873_a_at) / RFU LOC100653217 /// NTM (11731650_a_at) / Fold change /veh LOC100653217 /// NTM (11731650_a_at) / RFU MAPK11 (11762145_a_at) / Fold change /veh MAPK11 (11762145_a_at) / RFU FIZ1 (11724087_x_at) / Fold change /veh FIZ1 (11724087_x_at) / RFU OASL (11726364_x_at) / Fold change /veh OASL (11726364_x_at) / RFU SOX15 (11748057_x_at) / Fold change /veh SOX15 (11748057_x_at) / RFU CD79A (11719716_a_at) / Fold change /veh CD79A (11719716_a_at) / RFU HIST1H1D (11736915_at) / Fold change /veh HIST1H1D (11736915_at) / RFU CASKIN2 (11723855_a_at) / Fold change /veh CASKIN2 (11723855_a_at) / RFU LOC730098 (11760151_x_at) / Fold change /veh LOC730098 (11760151_x_at) / RFU OR4N2 (11742367_at) / Fold change /veh OR4N2 (11742367_at) / RFU PRRT2 (11749266_a_at) / Fold change /veh PRRT2 (11749266_a_at) / RFU SNX32 (11753110_a_at) / Fold change /veh SNX32 (11753110_a_at) / RFU CDHR5 (11726645_a_at) / Fold change /veh CDHR5 (11726645_a_at) / RFU RCAN1 (11760418_a_at) / Fold change /veh RCAN1 (11760418_a_at) / RFU FAM167A (11723789_a_at) / Fold change /veh FAM167A (11723789_a_at) / RFU FAM26E (11764081_at) / Fold change /veh FAM26E (11764081_at) / RFU ISYNA1 (11749810_s_at) / Fold change /veh ISYNA1 (11749810_s_at) / RFU ACY1 (11761880_at) / Fold change /veh ACY1 (11761880_at) / RFU 11764098_at / Fold change /veh 11764098_at / RFU SAMD14 (11745864_x_at) / Fold change /veh SAMD14 (11745864_x_at) / RFU NPB (11741838_a_at) / Fold change /veh NPB (11741838_a_at) / RFU TMPRSS6 (11731388_a_at) / Fold change /veh TMPRSS6 (11731388_a_at) / RFU KRTAP10-2 (11738614_at) / Fold change /veh KRTAP10-2 (11738614_at) / RFU ARHGAP8 /// PRR5-ARHGAP8 (11727945_x_at) / Fold change /veh ARHGAP8 /// PRR5-ARHGAP8 (11727945_x_at) / RFU KRTAP5-7 /// NADSYN1 (11734609_at) / Fold change /veh KRTAP5-7 /// NADSYN1 (11734609_at) / RFU RASL12 (11751679_a_at) / Fold change /veh RASL12 (11751679_a_at) / RFU CDKN2B (11736163_a_at) / Fold change /veh CDKN2B (11736163_a_at) / RFU PRF1 (11729649_at) / Fold change /veh PRF1 (11729649_at) / RFU, ZNF638 /// ZNF638-IT1 / Fold change vs veh, ZNF638 /// ZNF638-IT1 / RFU, PANK3 / Fold change vs veh, PANK3 / RFU, SH3YL1 / Fold change vs veh, SH3YL1 / RFU, ZEB2 / Fold change vs veh, ZEB2 / RFU, NRIP1 / Fold change vs veh, NRIP1 / RFU, PTTG1IP / Fold change vs veh, PTTG1IP / RFU, CAPN2 / Fold change vs veh, CAPN2 / RFU, MED14 / Fold change vs veh, MED14 / RFU, SNORA58 / Fold change vs veh, SNORA58 / RFU, C1orf63 / Fold change vs veh, C1orf63 / RFU, LRRFIP1 / Fold change vs veh, LRRFIP1 / RFU, NDUFAF7 / Fold change vs veh, NDUFAF7 / RFU, SLC12A2 / Fold change vs veh, SLC12A2 / RFU, IBTK / Fold change vs veh, IBTK / RFU, ESF1 / Fold change vs veh, ESF1 / Fold change vs veh, TMEM50B / RFU, TAOK1 / Fold change vs veh, TAOK1 / RFU, ACBD3 / Fold change vs veh, ACBD3 / RFU, TMA16 / Fold change vs veh, TMA16 / RFU, RWDD3 / Fold change vs veh, RWDD3 / RFU, BCAT1 / Fold change vs veh, BCAT1 / RFU, EDEM3 / Fold change vs veh, EDEM3 / RFU, TMEM33 / Fold change vs veh, TMEM33 / RFU, WDR75 / Fold change vs veh, WDR75 / RFU, AHCTF1 / Fold change vs veh, AHCTF1 / RFU, TFRC / Fold change vs veh, TFRC / RFU, ZDHHC17 / Fold change vs veh, ZDHHC17 / RFU, NOM1 / Fold change vs veh, NOM1 / RFU, ARL8B / Fold change vs veh, ARL8B / RFU, ZBTB11 / Fold change vs veh, ZBTB11 / RFU, TAMM41 / Fold change vs veh, TAMM41 / RFU, KIAA1704 /// LOC100996395 / Fold change vs veh, KIAA1704 /// LOC100996395 / RFU, ING1 / Fold change vs veh, ING1 / RFU, TRMT61B / Fold change vs veh, TRMT61B / RFU, FUBP3 / Fold change vs veh, FUBP3 / RFU, TP53 / Fold change vs veh, TP53 / RFU, TNKS2 / Fold change vs veh, TNKS2 / RFU, ZFP14 / Fold change vs veh, ZFP14 / RFU, ACTR2 / Fold change vs veh, ACTR2 / RFU, PPP3R1 / Fold change vs veh, PPP3R1 / RFU, PIK3R1 / Fold change vs veh, PIK3R1 / RFU, HNRNPA1 / Fold change vs veh, HNRNPA1 / RFU, RNF170 / Fold change vs veh, RNF170 / RFU, ZNF28 / Fold change vs veh, ZNF28 / RFU, RNGTT / Fold change vs veh, RNGTT / RFU, OGT / Fold change vs veh, OGT / RFU, BRD1 / Fold change vs veh, BRD1 / RFU, MARS / Fold change vs veh, MARS / RFU, ZNF655 / Fold change vs veh, ZNF655 / RFU, FAHD1 / Fold change vs veh, FAHD1 / RFU, BDP1 / Fold change vs veh, BDP1 / RFU, LRRCC1 / Fold change vs veh, LRRCC1 / RFU, ARID1A / Fold change vs veh, ARID1A / RFU, ZNF146 / Fold change vs veh, ZNF146 / RFU, ZNF330 / Fold change vs veh, ZNF330 / RFU, GPN3 / Fold change vs veh, GPN3 / RFU, C9orf123 / Fold change vs veh, C9orf123 / RFU, N4BP2L2 / Fold change vs veh, N4BP2L2 / RFU, ARFIP1 / Fold change vs veh, ARFIP1 / RFU, FAM179B / Fold change vs veh, FAM179B / RFU, BCL10 / Fold change vs veh, BCL10 / RFU, UHRF1BP1L / Fold change vs veh, UHRF1BP1L / RFU, BET1 / Fold change vs veh, BET1 / RFU, CNOT2 / Fold change vs veh, CNOT2 / RFU, ZNF268 / Fold change vs veh, ZNF268 / Fold change vs veh, ZNF507 / RFU, DGCR2 / Fold change vs veh, DGCR2 / RFU, WDSUB1 / Fold change vs veh, WDSUB1 / Fold change vs veh, HSP90B1 /// MIR3652 / RFU, ADSS / Fold change vs veh, ADSS / RFU, GK / Fold change vs veh, GK / RFU, ZNF148 / Fold change vs veh, ZNF148 / RFU, TAF9 / Fold change vs veh, TAF9 / RFU, SLC1A5 / Fold change vs veh, SLC1A5 / RFU, SLMO2 / Fold change vs veh, SLMO2 / RFU, ABCC4 / Fold change vs veh, ABCC4 / RFU, LOC101060439 /// RAP1B / Fold change vs veh, LOC101060439 /// RAP1B / RFU, RFX7 / Fold change vs veh, RFX7 / RFU, GTPBP10 / Fold change vs veh, GTPBP10 / RFU, CNEP1R1 / Fold change vs veh, CNEP1R1 / RFU, BIVM-ERCC5 /// ERCC5 / Fold change vs veh, BIVM-ERCC5 /// ERCC5 / RFU, ILF3 / Fold change vs veh, ILF3 / RFU 11762660_at / Fold change /veh 11762660_at / RFU VCAN (11757783_s_at) / Fold change /veh VCAN (11757783_s_at) / RFU DDX43 (11728927_at) / Fold change /veh DDX43 (11728927_at) / RFU KRT8 (11758188_x_at) / Fold change /veh KRT8 (11758188_x_at) / RFU NKD1 (11759106_at) / Fold change /veh NKD1 (11759106_at) / RFU SRD5A1 (11742802_a_at) / Fold change /veh SRD5A1 (11742802_a_at) / RFU TPSAB1 /// TPSB2 (11721975_s_at) / Fold change /veh TPSAB1 /// TPSB2 (11721975_s_at) / RFU GSTM3 (11746129_a_at) / Fold change /veh GSTM3 (11746129_a_at) / RFU IL23R (11737362_x_at) / Fold change /veh IL23R (11737362_x_at) / RFU TMEM51 (11727254_a_at) / Fold change /veh TMEM51 (11727254_a_at) / RFU PIWIL2 (11732686_x_at) / Fold change /veh PIWIL2 (11732686_x_at) / RFU ORM1 (11744905_x_at) / Fold change /veh ORM1 (11744905_x_at) / RFU CCDC152 (11743942_at) / Fold change /veh CCDC152 (11743942_at) / RFU ECM1 (11717891_a_at) / Fold change /veh ECM1 (11717891_a_at) / RFU IL23R (11748794_a_at) / Fold change /veh IL23R (11748794_a_at) / RFU TNFAIP8L3 (11732012_x_at) / Fold change /veh TNFAIP8L3 (11732012_x_at) / RFU MBOAT4 (11741988_at) / Fold change /veh MBOAT4 (11741988_at) / RFU 11764193_at / Fold change /veh 11764193_at / RFU TMEM53 (11763286_at) / Fold change /veh TMEM53 (11763286_at) / RFU MAGEB2 (11727129_at) / Fold change /veh MAGEB2 (11727129_at) / RFU TMEM200A (11744735_a_at) / Fold change /veh TMEM200A (11744735_a_at) / RFU CCDC152 (11751479_a_at) / Fold change /veh CCDC152 (11751479_a_at) / RFU FAM211A (11726209_a_at) / Fold change /veh FAM211A (11726209_a_at) / RFU RGS16 (11746705_a_at) / Fold change /veh RGS16 (11746705_a_at) / RFU VCAN (11755009_s_at) / Fold change /veh VCAN (11755009_s_at) / RFU RHOB (11743442_s_at) / Fold change /veh RHOB (11743442_s_at) / RFU RGS16 (11720943_a_at) / Fold change /veh RGS16 (11720943_a_at) / RFU RGS16 (11720944_at) / Fold change /veh RGS16 (11720944_at) / RFU, VPS4B / Fold change vs veh, VPS4B / RFU, CREB1 / Fold change vs veh, CREB1 / RFU, DNAJC13 / Fold change vs veh, DNAJC13 / RFU, GNAQ / Fold change vs veh, GNAQ / RFU, CDK5R1 / Fold change vs veh, CDK5R1 / RFU, ZRANB3 / Fold change vs veh, ZRANB3 / RFU, CUL4A / Fold change vs veh, CUL4A / RFU, CCNY / Fold change vs veh, CCNY / RFU, UFL1 / Fold change vs veh, UFL1 / RFU, COG3 / Fold change vs veh, COG3 / RFU, DIAPH2 / Fold change vs veh, DIAPH2 / RFU, SKA2 / Fold change vs veh, SKA2 / RFU, AFF3 / Fold change vs veh, AFF3 / RFU, LMF1 / Fold change vs veh, LMF1 / RFU, IPO11 / Fold change vs veh, IPO11 / RFU, DFFB / Fold change vs veh, DFFB / RFU, FOXP1 / Fold change vs veh, FOXP1 / RFU, CARD8 / Fold change vs veh, CARD8 / RFU, STRN3 / Fold change vs veh, STRN3 / RFU, ADK / Fold change vs veh, ADK / RFU, RASSF2 / Fold change vs veh, RASSF2 / RFU, WIPF1 / Fold change vs veh, WIPF1 / RFU, LARP1B / Fold change vs veh, LARP1B / RFU, RASA1 / Fold change vs veh, RASA1 / RFU, RB1 / Fold change vs veh, RB1 / RFU, PPFIA1 / Fold change vs veh, PPFIA1 / RFU, MAT2A / Fold change vs veh, MAT2A / RFU, CCT5 / Fold change vs veh, CCT5 / RFU, WDR92 / Fold change vs veh, WDR92 / RFU, CUX1 / Fold change vs veh, CUX1 / RFU, TTC7A / Fold change vs veh, TTC7A / RFU, TMEM135 / Fold change vs veh, TMEM135 / RFU, DEPTOR / Fold change vs veh, DEPTOR / RFU, CPM / Fold change vs veh, CPM / RFU, DNAJB6 / Fold change vs veh, DNAJB6 / RFU, CACNA2D3 / Fold change vs veh, CACNA2D3 / RFU, DTX4 / Fold change vs veh, DTX4 / RFU, TFCP2 / Fold change vs veh, TFCP2 / RFU, GMCL1 /// GMCL1P1 / Fold change vs veh, GMCL1 /// GMCL1P1 / RFU, AEBP2 / Fold change vs veh, AEBP2 / RFU, SNHG1 /// SNORD22 /// SNORD25 /// SNORD26 /// SNORD27 /// SNORD28 /// SNORD29 /// SNORD31 / Fold change vs veh, SNHG1 /// SNORD22 /// SNORD25 /// SNORD26 /// SNORD27 /// SNORD28 /// SNORD29 /// SNORD31 / Fold change (Aza/veh), C12orf56 (ProbeSet 11735607_a_at) / Fold change (ACY-1035/veh), C12orf56 (ProbeSet 11735607_a_at) / Fold change (Aza/veh), FGFR1OP (ProbeSet 11751329_s_at) / Fold change (ACY-1035/veh), FGFR1OP (ProbeSet 11751329_s_at) / Fold change (Aza/veh), VPS36 (ProbeSet 11739960_a_at) / Fold change (ACY-1035/veh), VPS36 (ProbeSet 11739960_a_at) / RFU SYPL1 (11715823_x_at) / Fold change /veh SYPL1 (11715823_x_at) / RFU IGFBP7 (11715501_s_at) / Fold change /veh IGFBP7 (11715501_s_at) / RFU REEP3 (11722064_at) / Fold change /veh REEP3 (11722064_at) / RFU IGLL1 (11728026_x_at) / Fold change /veh IGLL1 (11728026_x_at): dose or concentration left out as unconfirmed
Details: ProbeSet 11721969_s_at; LIST B

## Nc1ccc(-c2cccs2)cc1NC(=O)c1ccc2c(c1)cc(C1CC1)n2CCN1CCOCC1 [ACY-1035]
  Fold change vs veh, BDP1: 0.84
